From the RepoRT retention time repository

Experiment: Agilent ZORBAX 300 SB-C18, 150 × 1 mm, 3.5 µm; A: water + 0.01% heptafluorobutyric acid; B: acetonitrile + 0.01% heptafluorobutyric acid; gradient (min/%B) 0/0 100/90
Details: stereoisomer not certain

Row | LC retention time | SMILES
1 | 15.8 min | CN(c1nc(-c2ccc(C(C)(C)C)cc2)nc2ccccc12)C1CCCCC1
2 | 1.46 min | O=C1CCCN1CP(=O)(O)CN1CCCC1=O
3 | 11.9 min | O=C(Oc1ccccc1)c1cccnc1
4 | 9.02 min | CC(C)(C)Nc1ncnc2ccccc12
5 | 12.5 min | O=C(c1ccc(CN2CCc3ccccc3C2)cc1)N(Cc1ccccc1)Cc1ccccc1
6 | 8.96 min | Nc1ccccc1OCCOc1ccccc1N
7 | 7.61 min | CN(C)CCN(C)CCN(C)CCN(C)C
8 | 10.7 min | S=C(Nc1ccccn1)NC1CCCCC1
9 | 7.4 min | CCCCC[N+]1(C)CCCC1
10 | 7.48 min | CC1(C)CC(NC(=O)C(=O)NC2CC(C)(C)NC(C)(C)C2)CC(C)(C)N1
11 | 6.92 min | CC(=O)Nc1cccc2ncccc12
12 | 12.6 min | O=C(C=Cc1ccccc1)c1ccc(O)c(O)c1O
13 | 11.9 min | Cc1[nH]c(C)c(C(=O)Nc2ccccc2)c1C
14 | 12.7 min | CCC(C)n1cc(C=C2NC(=O)NC2=O)c2ccccc21 (centres undefined)
15 | 7.37 min | NCCCCCCNCCCCCCN
16 | 5.51 min | Cc1cc(C(=O)O)c2ccccc2n1
17 | 10 min | CC(C)NCC(O)COc1ccc(COCCOC(C)C)cc1 (centres undefined)
18 | 7.37 min | COCCCN1CCC(CN)C1 (centres undefined)
19 | 7.16 min | Nc1nc(N)nc(-c2ccc(-c3nc(N)nc(N)n3)cc2)n1
20 | 9.18 min | C(=Cc1cccs1)c1ccccn1
21 | 7.14 min | CNC1CCCCC1NC (centres undefined)
22 | 13.2 min | CCOC(=O)c1ccc(NC(=O)C2CC(=O)N(C3CCCCC3)C2)cc1 (centres undefined)
23 | 6.26 min | CC(=O)CC(C)(C)N
24 | 10.8 min | CCn1c2ccccc2c2cc(CNC3CC3)ccc21
25 | 10.8 min | CCCCOc1ccccc1N

Row | LC retention time | SMILES
26 | 18.2 min | CCCCCCCCCCCCC(N)=O
27 | 8.53 min | Cc1ccc(CNC2CCCC2)o1
28 | 5.98 min | Nc1ncnc2[nH]ncc12
29 | 9.17 min | O=C(NCc1cccnc1)c1cccc2ccccc12
30 | 9.64 min | Cc1ccc(NC(=S)NN=C2CCN(C(C)C)CC2)cc1
31 | 1.25 min | O=C(O)c1n[nH]c(=O)[nH]1
32 | 11.9 min | COC(=O)c1ccc(NC(=O)Cn2nc(C)c3ccccc3c2=O)cc1
33 | 9.89 min | CC(COc1ccccc1)NC(C)C(O)c1ccc(O)cc1 (centres undefined)
34 | 12 min | COc1ccc(C=CC(C)=O)cc1
35 | 17.1 min | Cc1cccc(-c2nnc(-c3ccccc3C)o2)c1
36 | 8.73 min | O=Cc1cccc2ncccc12
37 | 14.3 min | O=C(O)CCn1c2c(c3ccccc31)CCCC2
38 | 16.5 min | O=C(c1ccc(-c2ccccc2)cc1)N1CCN(c2ccccc2)CC1
39 | 11.8 min | CC1N(CCC(N)=O)c2ccccc2C1(C)C (centres undefined)
40 | 7.09 min | CNCc1cccn1C
41 | 3.96 min | CN1CCOCC1
42 | 11.6 min | COc1ccc(-c2ccccc2)cc1N
43 | 6.16 min | NC(=O)CCN1CCNCC1
44 | 9.76 min | Cc1ccsc1CNC(C)c1ccccc1 (centres undefined)
45 | 11.2 min | O=c1c(C=NCc2ccco2)c(NCc2ccco2)nc2ccccn12
46 | 7.28 min | NC1c2ccccc2CC1O (centres undefined)
47 | 14.5 min | O=C(C=Cc1ccccc1O)c1ccccc1O
48 | 6.84 min | c1cn[nH]c1
49 | 18.1 min | CCCCc1ccc(-n2c(CCC(=O)O)ccc2-c2ccccc2)cc1
50 | 13.3 min | Nc1ccccc1C(=O)NN=Cc1cccc2ccccc12

Row | LC retention time | SMILES
51 | 9.03 min | COC(=O)CCc1ccc(C)c(N)c1
52 | 3.64 min | COC(=O)CN
53 | 18.2 min | Cc1cc(C)c(C=CC(=O)c2cccs2)c(C)c1
54 | 8.75 min | CC(C)NCC(O)COc1cccc2[nH]ccc12 (centres undefined)
55 | 10.4 min | NC(Cc1ccccc1)C(=O)Nc1ccc2ccccc2c1 (centres undefined)
56 | 7.66 min | CC1Cc2ccccc2N1 (centres undefined)
57 | 7.02 min | NC(CO)c1ccccc1 (centres undefined)
58 | 6.78 min | NCCCCCCN
59 | 3.96 min | CN1CCOC1=O
60 | 4.89 min | O=c1cc[nH]cc1
61 | 8.83 min | CCN(CC)CCOc1ccccc1OC
62 | 12.9 min | CC(=O)c1cccc(NC(=O)Nc2ccc(C)cc2)c1
63 | 9.11 min | NC(=O)N1CCC(CCCC2CCN(C(N)=O)CC2)CC1
64 | 8.35 min | Nc1ccc2c(c1)CCC2
65 | 9.17 min | CCCNC(C)C(=O)Nc1ccccc1C (centres undefined)
66 | 8.25 min | CC1(C)CC(O)N=C1c1ccccc1 (centres undefined)
67 | 8.31 min | CCCCCC(N)=O
68 | 9.61 min | COc1ccc(N=Nc2c(N)n[nH]c2N)cc1
69 | 2.12 min | O=C(Cn1ccc(=O)[nH]c1=O)NCCO
70 | 6.46 min | Cc1cccc(C)n1
71 | 9.65 min | Cc1cccc(OCC(O)CNC(C)C)c1 (centres undefined)
72 | 10.4 min | CC(C)NCC(O)COc1cccc2ccccc12 (centres undefined)
73 | 9.4 min | CN(C)CCC(=O)c1ccc2ccccc2c1
74 | 15.1 min | Cc1ccc(C=C2C(=O)c3ccccc3C2=O)o1
75 | 8.38 min | CN(C)CCC(C)(O)Cc1ccccc1 (centres undefined)

Row | LC retention time | SMILES
76 | 13.2 min | Cc1ccc(C2C3=C(CC(C)(C)CC3=O)NC3=C2C(=O)CC(C)(C)C3)cc1
77 | 15 min | COC(=O)c1ccccc1-c1cc(C(=O)OC)c2ccccc2n1
78 | 7.34 min | CNC(=O)CC1Nc2ccccc2NC1=O (centres undefined)
79 | 12.1 min | O=C(CC1NC(=O)N(C2CCCCC2)C1=O)NCCc1c[nH]c2ccccc12 (centres undefined)
80 | 6.73 min | c1coc(C2=NCCN2)c1
81 | 2.77 min | NCC(O)CO (centres undefined)
82 | 6.3 min | C=Cn1ccnc1
83 | 19.7 min | CCCCCCCCCCCCCC(N)=O
84 | 16.6 min | c1ccc2c3c([nH]c2c1)CCCCC3
85 | 14.2 min | CC(C)(C)c1ccc(C(=O)NN=Cc2c[nH]c3ccccc23)cc1
86 | 21.5 min | CCCCc1ccc(NC=CC(=O)c2ccc(C)cc2)cc1
87 | 6.77 min | CCCNC1CCN(C(C)=O)CC1
88 | 6.61 min | CN1CCCCC1
89 | 21.2 min | CCCCCC(=O)OC1(C(C)=O)CCC2C3CCC4=CC(=O)CCC4(C)C3CCC21C (centres undefined)
90 | 9.59 min | c1ccc(-n2nnnc2-n2ccnc2)cc1
91 | 8.13 min | Cc1[nH]c2ccc(C(=O)O)cc2c1CC(=O)O
92 | 15.2 min | COc1ccc(OC)c(C(=O)C=Cc2ccc(OC)c(OC)c2OC)c1
93 | 10.3 min | CNC(=S)NNC(=O)Cc1cccc2ccccc12
94 | 7.65 min | CC1(C)OCOC1=CC[N+](C)(C)C
95 | 17 min | COc1ccc2c(c1C)CCC1=C(C)C(=O)CCC12C (centres undefined)
96 | 7.92 min | CC(=O)Nc1c(C)cc(C)cc1N
97 | 10.4 min | CC(=O)NCCOc1ccc(C)cc1
98 | 11.6 min | Nc1ccc(C(=O)NN=Cc2cccc3ccccc23)cc1
99 | 1.27 min | O=C1OCc2c1[nH]c(=O)[nH]c2=O
100 | 8.12 min | Cc1ccc(N(C)C)cc1

Row | LC retention time | SMILES
101 | 20.2 min | CCCCCCCCCCOc1ccc(C(=O)NCCN2Cc3ccccc3C2=O)cc1
102 | 12.4 min | Cc1ccc(-c2cc(C(=O)O)c3ccccc3n2)cc1
103 | 10.1 min | CCOC(=O)C=CC(=O)NNC(=O)CCC(=O)Nc1ccc(C)cc1C
104 | 19.3 min | Cc1ccc(-c2noc(-c3ccc(C)cc3)c2C)cc1
105 | 16.9 min | O=C(NN=Cc1ccc(OCc2ccccc2)cc1)c1ccc(-c2ccccc2)cc1
106 | 12.2 min | COC(=O)Nc1nc2ccc(Sc3ccccc3)cc2[nH]1
107 | 7.88 min | CCc1nc2ccccc2[nH]1
108 | 12.9 min | O=C(C=Cc1ccccc1)c1ccc(O)cc1
109 | 7.89 min | CC(=O)Nc1c2ccccc2nc2ccccc12
110 | 7.75 min | O=C(Nc1ccc2[nH]c(=O)[nH]c2c1)c1ccco1
111 | 12.3 min | Cc1ccc(C(=O)NCc2ccco2)c(C)c1
112 | 6.81 min | CN(C)c1ccccn1
113 | 5.49 min | NC(=O)C1CCCOC1 (centres undefined)
114 | 8.69 min | COc1ccc(C2=C(N)C(=O)NC2=O)cc1OC
115 | 6.69 min | O=C(O)CCCc1ccncc1
116 | 8.4 min | CC(C)(C)NCC(O)COc1cccc2c1CCC(=O)N2 (centres undefined)
117 | 10.2 min | Cc1ccc(C(C)C)c(OCCN)c1
118 | 12.6 min | COc1ccc(N(C)C(=O)c2cccc(C(=O)N(C)c3ccc(OC)cc3)c2)cc1
119 | 7.92 min | CN(CCO)C(=O)Nc1ccccc1
120 | 6.97 min | O=Cc1ccc[nH]1
121 | 12.3 min | COc1cccc2c1NC(C)(C)CC2C (centres undefined)
122 | 2.75 min | Cc1nc(N)cc(=O)[nH]1
123 | 11.5 min | CCN(CC)c1ccc(N=Cc2ccc(N(CC)CC)cc2O)cc1

Row | SMILES | LC retention time
124 | C[N+](C)(C)c1ccccc1 | 7 min
125 | CCN(CC)c1ccc(CCN)cc1 | 8.39 min
126 | CC12CCC(O)CC1=CCC1C2CCC2(C)C(N)CCC12 (centres undefined) | 8.88 min
127 | CCOC(=O)c1c(C)n(C2CCCCC2)c2ccc(OC(C)=O)cc12 | 17.8 min
128 | C1CCC(NC2CCCCC2)CC1 | 9.69 min
129 | CCCCCCn1c2ccccc2c2cc(C(C)=O)ccc21 | 20 min
130 | O=P(O)(O)CN(CP(=O)(O)O)CP(=O)(O)O | 1.08 min
131 | Cc1ccc(-n2c(O)c(C=Nc3ccc(O)cc3C)c(=O)[nH]c2=O)cc1 | 10.9 min
132 | CCC1(c2ccccc2)CCC(=O)NC1=O (centres undefined) | 11.5 min
133 | CC1=NN(Cc2c[nH]c3ccccc23)C(C)(C)C1 | 9.37 min
134 | CC1NCCC2(O)CCCCC12 (centres undefined) | 7.09 min
